# Values quoted from earlier work in patent US20170106067A1, “COMBINATORIAL IMMUNOTHERAPY FOR PANCREATIC CANCER TREATMENT” (THE JOHNS HOPKINS UNIVERSITY, priority 2014, published 2017).
# Test system: metastatic PDA
# Details: Le et al., 2013
substance,measurement,value
ipilimumab,clinical anti tumor activity in metastatic PDA patients,failed to demonstrate durable and effective anti tumor activity
